21 compounds from US12037324B2, “Biarylmethyl heterocycles” (Université de Montréal, priority 2016, dated 2024) can be followed below.

What all share (assay type): cell-based
One test deals with T1, AGTR1 (Homo sapiens, UniProt P30556).
T1 construct: host or cells: Pathunter CHO-K1 AGTR1 β-arrestin cell line (CHO-K1)
T1 sequence (P30556 1-359): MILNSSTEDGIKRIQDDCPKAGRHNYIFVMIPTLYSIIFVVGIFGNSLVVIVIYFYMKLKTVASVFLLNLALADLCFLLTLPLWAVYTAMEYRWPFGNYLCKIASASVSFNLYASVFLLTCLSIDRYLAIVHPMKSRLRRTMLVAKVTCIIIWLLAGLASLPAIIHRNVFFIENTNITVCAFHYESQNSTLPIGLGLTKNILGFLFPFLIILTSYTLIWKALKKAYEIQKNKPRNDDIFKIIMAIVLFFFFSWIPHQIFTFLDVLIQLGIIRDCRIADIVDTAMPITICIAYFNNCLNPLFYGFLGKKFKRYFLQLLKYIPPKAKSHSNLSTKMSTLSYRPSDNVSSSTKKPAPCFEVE
Nature of the test: DiscoveRx β-arrestin2 recruitment assay (enzyme complementation, Pathunter CHO-K1 AGTR1 β-arrestin cell line). The conditions noted are these: DiscoveRx β-arrestin2 recruitment. Put shortly: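 Chemiluminescent enzyme-complementation read-out of β-arrestin2 recruitment to AGTR1 in engineered CHO-K1 cells after 90 min compound exposure at 37° C. Values are 4-parameter logistic EC50s in agonist mode, IC50s in antagonist mode, with efficacy relative to the maximal All response.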
A general note: Arrestin recruitment assays detect the binding of arrestin to an activated receptor.

Test [1] has as its target T2, hAT1R (Homo sapiens, UniProt P30556).
T2 sequence (P30556 1-359): T1 sequence (P30556 1-359)
Nature of the test: BRET β-arrestin2 biosensor assay, higher receptor expression (hAT1R 5 ng/well), HEK293 cells. The conditions noted are these: for EC50: High AT1R Expression. (In general: Bioluminescence resonance energy transfer reports proximity on the nanometre scale.)

Test [2] has as its target T2, hAT1R. Briefly: BRET Gq biosensor assay, agonist response, HEK293 cells. The conditions noted are these: section of the 42nd table directly before the BRET P63 section. Put shortly: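 Agonist EC50 derived from a 4-parameter fit of BRET2 ratio (GFP 515 nm/Rluc 410 nm), scaled between unstimulated control and maximal AngII response. Readings taken 5 min after compound addition at room temperature, with 2 μM coelenterazine, in HEK293 cells expressing hAT1R, Gαq-Rluc, Gβ1 and GFP-Gγ1 (transfected two days earlier).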

The EC50 is the concentration at which the effect is half-maximal. For `CCCCc1ncc(C(=O)NCCC(C)(C)O)n1Cc1ccc(-c2cc(-c3ccccc3)ccc2-c2nn[nH]n2)cc1` [Example 350], the EC50 is 8.3 nM at AGTR1, 15.6 nM on hAT1R [1] and 25.3 nM at hAT1R [2]. For the same compound, the “DiscoveRx β-arrestin2 Ymax (%)” value on AGTR1 (maximal response) was found to be 47.0%. For the same compound, the “BRET β-Arrestin2 High AT1R Expression Ymax (%)” value at hAT1R [1] worked out at 94.3%.
Consider `CCCCc1ncc(C(=O)NCc2nccs2)n1Cc1ccc(-c2cc(-c3ccccc3)ccc2-c2nn[nH]n2)cc1` [Example 356], for which the 50% effective concentration (EC50) at AGTR1 was determined as 27.3 nM; at hAT1R [1], 17.7 nM; at hAT1R [2] it was 36.7 nM. The “DiscoveRx β-arrestin2 Ymax (%)” value on AGTR1 (maximal response) stood at 41.5%. The “BRET β-Arrestin2 High AT1R Expression Ymax (%)” value on hAT1R [1] is listed as 84.7%.
For `CCCCc1ncc(C(=O)NCc2cccnn2)n1Cc1ccc(-c2cc(-c3ccccc3)ccc2-c2nn[nH]n2)cc1` [Example 355], in that order: 8.6 nM, 23.3 nM, above 1000 nM, 42.4% and 92.5%.
Consider `CCCCc1ncc(C(=O)NCCC(C)C)n1Cc1ccc(-c2cc(-c3ccccc3)ccc2-c2nn[nH]n2)cc1` [Example 366], for which the EC50 on AGTR1 amounted to 11.1 nM; at hAT1R [1], 27.4 nM; at hAT1R [2], 42.9 nM. The “DiscoveRx β-arrestin2 Ymax (%)” value on AGTR1 (maximal response) came to 37.0%. Also, at hAT1R [1], the “BRET β-Arrestin2 High AT1R Expression Ymax (%)” value is 78.7%.
For `CCCc1nc(CC)c(C(=O)NCC(F)(F)F)n1Cc1ccc(-c2cc(-c3ccccc3)ccc2-c2nn[nH]n2)cc1` [Example 397, 1-((6′-(2H-tetrazol-5-yl)-[1,1′:3′,1″-terphenyl]-4-yl)methyl)-4-ethyl-2-propyl-N-(2,2,2-trifluoroethyl)-1H-imidazole-5-carboxamide], in that order: 78.2 nM, 80.9 nM, 124 nM, 46.5% and 87.9%.
`CCCCc1ncc(C(=O)NC2CC3(CCC3)C2)n1Cc1ccc(-c2cc(-c3ccccc3)ccc2-c2nn[nH]n2)cc1` [Example 351]: the concentration for a half-maximal effect (EC50) on AGTR1 is 18 nM; on hAT1R [1], 38.9 nM; at hAT1R [2] it was 81.1 nM. Moreover, the “DiscoveRx β-arrestin2 Ymax (%)” value at AGTR1 (maximal response) is 45.4%. Further, the “BRET β-Arrestin2 High AT1R Expression Ymax (%)” value at hAT1R [1] is on record as 89.6%.
On to `CCCCC(=O)N(Cc1ccc(-c2cc(Oc3ccccc3)ccc2-c2nn[nH]n2)cc1)C1(C(=O)O)CCCCC1` [Example 285, 1-(N-((5′-Phenoxy-2′-(2H-tetrazol-5-yl)-[1,1′-biphenyl]-4-yl)methyl)pentanamido)cyclohexanecarboxylic acid], for which the concentration giving a half-maximal response (EC50) stood at 66.4 nM on AGTR1, 57.3 nM at hAT1R [1] and 1540 nM on hAT1R [2]. Further, the “DiscoveRx β-arrestin2 Ymax (%)” value on AGTR1 (maximal response) was determined as 24.8%. Besides, on hAT1R [1], the “BRET β-Arrestin2 High AT1R Expression Ymax (%)” value turned out to be 33.4%.
For the compound `CCCc1nc(C(C)(C)O)c(C(=O)[O-])n1Cc1ccc(-c2cc(-c3ccccc3)ccc2-c2noc(=O)[nH]2)cc1.[Na+]` [Example 403, 4-(2-hydroxypropan-2-yl)-1-((6′-(5-oxo-4,5-dihydro-1,2,4-oxadiazol-3-yl)-[1,1′:3′,1″-terphenyl]-4-yl)methyl)-2-propyl-1H-imidazole-5-carboxylic acid, Na+], the concentration for a half-maximal effect (EC50) at AGTR1 is 14.2 nM; on hAT1R [1], 9.2 nM; on hAT1R [2] it was 70.9 nM. In addition, the “DiscoveRx β-arrestin2 Ymax (%)” value on AGTR1 (maximal response) is on record as 61.4%. Besides, on hAT1R [1], the “BRET β-Arrestin2 High AT1R Expression Ymax (%)” value came out at 88.6%.
For `CCCCc1ncc(C(=O)Nc2ccncc2)n1Cc1ccc(-c2cc(-c3ccccc3)ccc2-c2nn[nH]n2)cc1` [Example 353], in that order: 55 nM, 65.5 nM, 566 nM, 22.4% and 49.1%.
Taken in the same sequence, the figures for `CCCc1nc(CC)c(C(=O)O)n1Cc1ccc(-c2cc(-c3ccccc3)ccc2-c2noc(=O)[nH]2)cc1` [Example 399] were 13.4 nM, 7.2 nM, 1170 nM, 45.8% and 92.1%.
Consider `CCCCC(=O)N(Cc1ccc(-c2cc(-c3ccccc3)ccc2-c2nn[nH]n2)cc1)[C@]1(C(=O)O)CC[C@H](O)CC1` [Example 284, (1S,4S)-1-(N-((6′-(2H-Tetrazol-5-yl)-[1,1′:3′,1″-terphenyl]-4-yl)methyl)pentanamido)-4-hydroxycyclohexanecarboxylic acid], for which the EC50 is 21.1 nM at AGTR1, 33 nM at hAT1R [1] and 151 nM on hAT1R [2]. The “DiscoveRx β-arrestin2 Ymax (%)” value on AGTR1 (maximal response) came out at 62.7%. Besides, the “BRET β-Arrestin2 High AT1R Expression Ymax (%)” value at hAT1R [1] is 92.9%.
Take `CCCCc1ncc(C(=O)NCC)n1Cc1ccc(-c2cc(-c3ccccc3)ccc2-c2nn[nH]n2)cc1` [Example 379]: the EC50 on AGTR1 was determined as 21.2 nM; on hAT1R [1], 56.3 nM; on hAT1R [2], 106 nM. Moreover, the “DiscoveRx β-arrestin2 Ymax (%)” value at AGTR1 (maximal response) is 30.2%. Moreover, the “BRET β-Arrestin2 High AT1R Expression Ymax (%)” value on hAT1R [1] turned out to be 72.7%.
On to `CCCCC1=NC2(CCCC2)C(=O)N1Cc1ccc(-c2cc(-c3ccccc3)ccc2-c2nn[nH]n2)cn1` [Example 452, 3-((5-(4-(2H-Tetrazol-5-yl)-[1,1′-biphenyl]-3-yl)pyridin-2-yl)methyl)-2-butyl-1,3-diazaspiro[4.4]non-1-en-4-one], for which, at AGTR1, the “DiscoveRx β-arrestin2 Ymax (%)” value is 36.1% and the response was half-maximal at 8.1 nM (EC50). Further, at hAT1R [1], the “BRET β-Arrestin2 High AT1R Expression Ymax (%)” value worked out at 84.6% and it took 33.8 nM to reach a half-maximal effect (EC50). On hAT1R [2], the EC50 amounted to 44.8 nM.
For `CCCCC(=O)N(Cc1ccc(-c2cc(-c3ccccc3)ccc2-c2nn[nH]n2)cc1)C1(C(=O)O)CCCCCC1` [Example 277], the EC50 on AGTR1 is 36.1 nM; on hAT1R [1], 28.9 nM; at hAT1R [2], above 100000 nM. On AGTR1 (maximal response), the “DiscoveRx β-arrestin2 Ymax (%)” value was found to be 46.0%. For the same compound, on hAT1R [1], the “BRET β-Arrestin2 High AT1R Expression Ymax (%)” value amounted to 79.4%.
For `CCCCc1nc(Cl)c(C(=O)O)n1Cc1ccc(-c2cc(-c3cnn(C(F)F)c3)ccc2-c2nn[nH]n2)cc1` [Example 387], in that order: 16.6 nM, 18.2 nM, 3420 nM, 32.8% and 81.9%.
Taken in the same sequence, the figures for `CCCCC(=O)N(Cc1ccc(-c2cc(-c3ccccc3)ccc2-c2nn[nH]n2)cc1)C1(C(=O)O)CCCCC1` [Example 272] were 16.5 nM, 15.2 nM, above 100000 nM, 43.5% and 84.0%.
As to `CCCC(=O)N(Cc1ccc(-c2cc(-c3ccccc3)ccc2-c2nn[nH]n2)nc1)[C@H](C(=O)O)C(C)C` [Example 432], on AGTR1, the “DiscoveRx β-arrestin2 Ymax (%)” value is given as 42.9% and the half-maximal effective concentration (EC50) turned out to be 40.1 nM. At hAT1R [1], the “BRET β-Arrestin2 High AT1R Expression Ymax (%)” value is listed as 88.4% and the 50% effective concentration (EC50) was 163 nM. Further, the EC50 at hAT1R [2] stood at 286 nM.
Take `CCCCc1ncc(C(=O)N(C)C)n1Cc1ccc(-c2cc(-c3ccccc3)ccc2-c2nn[nH]n2)cc1` [Example 383, 1-((6′-(2H-tetrazol-5-yl)-[1,1′:3′,1″-terphenyl]-4-yl)methyl)-2-butyl-N,N-dimethyl-1H-imidazole-5-carboxamide]: the EC50 at AGTR1 was 70.4 nM; at hAT1R [1], 309 nM; at hAT1R [2], 7740 nM. In addition, the “DiscoveRx β-arrestin2 Ymax (%)” value on AGTR1 (maximal response) was 22.8%. For the same compound, on hAT1R [1], the “BRET β-Arrestin2 High AT1R Expression Ymax (%)” value is on record as 66.3%.
In the case of `CCCCC1=NC2(CCCC2)C(=O)N1Cc1ccc(-c2cc(-c3ccccc3)ccc2-c2noc(=O)[nH]2)cn1` [Example 453, 3-(3-(6-((2-Butyl-4-oxo-1,3-diazaspiro[4.4]non-1-en-3-yl)methyl)pyridin-3-yl)-[1,1′-biphenyl]-4-yl)-1,2,4-oxadiazol-5(4H)-one], at AGTR1, the “DiscoveRx β-arrestin2 Ymax (%)” value amounted to 59.5% and the EC50 was 31.4 nM. For the same compound, at hAT1R [1], the “BRET β-Arrestin2 High AT1R Expression Ymax (%)” value turned out to be 95.9% and the EC50 amounted to 13 nM. Besides, the 50% effective concentration (EC50) on hAT1R [2] was 24 nM.
For the compound `CCCCc1ncc(C(=O)NC2COC2)n1Cc1ccc(-c2cc(-c3ccccc3)ccc2-c2nn[nH]n2)cc1` [Example 358], the values for the EC50 at AGTR1, on hAT1R [1] and at hAT1R [2] were 10.1 nM, 21.4 nM and 44.7 nM, respectively. Also, the “DiscoveRx β-arrestin2 Ymax (%)” value at AGTR1 (maximal response) came to 40.2%. Further, the “BRET β-Arrestin2 High AT1R Expression Ymax (%)” value on hAT1R [1] turned out to be 88.8%.
For `CCOc1nc2cccc(C(=O)O)c2n1Cc1ccc(-c2cc(-c3cccnc3OC)ccc2-c2noc(=O)[nH]2)cc1` [Example 329], in that order: 7.1 nM, 2.8 nM, 31.5 nM, 77.6% and 91.4%.
